According to ChEMBL document CHEMBL4425144, “Discovery and Structural Optimization of N5-Substituted 6,7-Dioxo-6,7-dihydropteridines as Potent and Selective Epidermal Growth Factor Receptor (EGFR) Inhibitors against L858R/T790M Resistance Mutation” (J Med Chem, 2016):
Calls of active or inactive are those of the source. No cut-off for these calls is given here.

What was measured:
[1] = Tmax in ICR mouse at 10 mg/kg, po by LC-MS/MS method; assay type: ADME, organism-based; settings: in vivo
[2] = molecular target: Calcium/calmodulin-dependent protein kinase type 1 (Homo sapiens) (UniProt Q14012); experiment: Inhibition of human CAMK1 expressed in bacterial system assessed as remaining enzyme activity at 1000 nM relative to untreated control
[3] = molecular target: T1, Tyrosine-protein kinase TXK (Homo sapiens) (UniProt P42681); experiment: Inhibition of human TXK expressed in bacterial system assessed as remaining enzyme activity at 1000 nM relative to untreated control
T1 sequence (whole entry): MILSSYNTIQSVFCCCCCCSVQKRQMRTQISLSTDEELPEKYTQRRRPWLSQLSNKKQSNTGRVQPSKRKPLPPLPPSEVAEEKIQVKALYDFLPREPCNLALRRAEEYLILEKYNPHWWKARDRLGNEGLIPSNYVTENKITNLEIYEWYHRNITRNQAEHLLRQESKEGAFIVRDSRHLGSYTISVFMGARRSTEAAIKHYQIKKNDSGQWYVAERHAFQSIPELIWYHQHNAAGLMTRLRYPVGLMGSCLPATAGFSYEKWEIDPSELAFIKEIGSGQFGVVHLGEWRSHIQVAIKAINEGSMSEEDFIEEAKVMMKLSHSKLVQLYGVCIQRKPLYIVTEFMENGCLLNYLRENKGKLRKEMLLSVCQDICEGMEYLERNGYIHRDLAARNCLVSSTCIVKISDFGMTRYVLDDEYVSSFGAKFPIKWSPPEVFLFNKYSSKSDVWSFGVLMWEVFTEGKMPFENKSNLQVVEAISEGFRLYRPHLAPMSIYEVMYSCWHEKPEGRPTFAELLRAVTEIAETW

[4] = Half life in mouse liver microsomes at 1 uM in presence of NADPH by LC-MS/MS method; assay type: ADME, Microsome
[5] = molecular target: Epidermal growth factor receptor (Homo sapiens, UniProt P00533, L858R/T790M); experiment: Inhibition of EGFR kinase domain L858R/T790M mutant (unknown origin) expressed using baculovirus expression system incubated for 1 hr using Poly(Glu,Tyr) 4:1 by ELISA method
[6] = AUC (0 to t) in ICR mouse at 10 mg/kg, po by LC-MS/MS method; assay type: ADME, organism-based; settings: in vivo
A-431 [7] = experiment: Antitumor activity against human A431 cells xenografted in BALB/c mouse assessed as inhibition of tumor growth at 50 mg/kg, po qd for 14 consecutive days; assay type: functional; settings: A-431, po, read-out: TGI
NCI-H1975 [8] = settings: Homo sapiens, at 50 mg/kg
Description: Antitumor activity against human NCI-H1975 cells xenografted in BALB/c mouse assessed as inhibition of tumor cell proliferation by measuring Ki-67 expression at 50 mg/kg, po qd for 14 consecutive days by immunohistochemistry

NCI-H1975 [9] = experiment: Antitumor activity against human NCI-H1975 cells xenografted in BALB/c mouse assessed as inhibition of tumor growth at 50 mg/kg, po qd for 14 consecutive days; assay type: functional; settings: read-out: TGI
[10] = Cmax in ICR mouse at 10 mg/kg, po by LC-MS/MS method; assay type: ADME, organism-based; parameters: dose 10 mg/kg, route oral; settings: in vivo
[11] = Apparent volume of distribution in ICR mouse at 1 mg/kg, iv by LC-MS/MS method; assay type: ADME, organism-based; settings: in vivo, read-out: Vz
[12] = Dissociation constant, pKa of the compound by Sirius T3 based assay; assay type: physicochemical
[13] = Half life in ICR mouse at 1 mg/kg, iv by LC-MS/MS method; assay type: ADME, organism-based; settings: in vivo
[14] = Tmax in ICR mouse at 1 mg/kg, iv by LC-MS/MS method; assay type: ADME, organism-based; settings: in vivo
A-431 [15] = experiment: Antiproliferative activity against human A431 cells incubated for 72 hrs by SRB assay; assay type: functional, cell-based; settings: A-431, 72 h
[16] = molecular target: T2, Mitogen-activated protein kinase kinase kinase 6 (Homo sapiens) (UniProt O95382); experiment: Inhibition of human ASK2 expressed in mammalian system assessed as remaining enzyme activity at 1000 nM relative to untreated control
T2 sequence (whole entry): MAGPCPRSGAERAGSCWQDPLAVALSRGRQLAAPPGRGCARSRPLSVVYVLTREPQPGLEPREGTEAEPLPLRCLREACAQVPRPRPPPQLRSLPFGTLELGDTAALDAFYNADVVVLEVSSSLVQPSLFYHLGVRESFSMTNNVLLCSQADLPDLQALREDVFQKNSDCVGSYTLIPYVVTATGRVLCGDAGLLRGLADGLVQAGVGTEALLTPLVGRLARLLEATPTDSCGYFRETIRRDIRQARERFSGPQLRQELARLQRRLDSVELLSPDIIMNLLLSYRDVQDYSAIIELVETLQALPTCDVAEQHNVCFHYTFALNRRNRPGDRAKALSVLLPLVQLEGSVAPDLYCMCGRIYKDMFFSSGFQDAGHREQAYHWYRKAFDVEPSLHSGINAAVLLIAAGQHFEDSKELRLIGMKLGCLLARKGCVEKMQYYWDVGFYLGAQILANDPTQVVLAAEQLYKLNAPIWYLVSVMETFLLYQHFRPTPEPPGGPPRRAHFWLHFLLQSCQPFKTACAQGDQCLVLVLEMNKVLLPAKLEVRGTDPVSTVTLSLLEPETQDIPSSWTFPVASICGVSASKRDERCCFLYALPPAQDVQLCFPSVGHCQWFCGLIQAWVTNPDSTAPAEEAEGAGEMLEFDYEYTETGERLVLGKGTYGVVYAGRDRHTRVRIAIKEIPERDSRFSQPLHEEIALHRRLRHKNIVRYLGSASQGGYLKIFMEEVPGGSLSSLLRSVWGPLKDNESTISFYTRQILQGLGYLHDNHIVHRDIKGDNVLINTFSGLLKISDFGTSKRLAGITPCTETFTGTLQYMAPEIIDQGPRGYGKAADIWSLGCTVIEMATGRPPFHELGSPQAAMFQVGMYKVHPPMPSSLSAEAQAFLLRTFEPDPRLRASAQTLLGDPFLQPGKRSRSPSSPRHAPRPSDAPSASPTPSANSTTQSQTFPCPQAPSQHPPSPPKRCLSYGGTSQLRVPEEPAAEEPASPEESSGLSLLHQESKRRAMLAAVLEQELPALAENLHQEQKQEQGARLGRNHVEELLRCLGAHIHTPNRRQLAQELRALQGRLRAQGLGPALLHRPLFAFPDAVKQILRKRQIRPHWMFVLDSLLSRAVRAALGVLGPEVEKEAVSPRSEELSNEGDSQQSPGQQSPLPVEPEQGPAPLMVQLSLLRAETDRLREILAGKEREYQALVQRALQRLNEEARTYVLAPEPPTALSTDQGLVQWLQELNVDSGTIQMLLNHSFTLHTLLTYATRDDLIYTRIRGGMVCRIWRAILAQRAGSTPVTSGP

[17] = AUC (0 to infinity) in ICR mouse at 10 mg/kg, po by LC-MS/MS method; assay type: ADME, organism-based; parameters: dose 10 mg/kg, time infinity, route oral; settings: in vivo
Mus musculus = experiment: Inhibition of EGFR kinase domain L858R/T790M mutant phosphorylation in human NCI-H1975 cells xenografted BALB/c mouse at 50 mg/kg, po qd for 14 consecutive days by Western blot method; assay type: functional, organism-based
[18] = AUC (0 to infinity) in ICR mouse at 1 mg/kg, iv by LC-MS/MS method; assay type: ADME, organism-based; parameters: dose 1 mg/kg, route intravenous, time infinity; settings: in vivo

Calcium/calmodulin-dependent protein kinase type 1 (Homo sapiens), sequence (Q14012 whole entry, looked up): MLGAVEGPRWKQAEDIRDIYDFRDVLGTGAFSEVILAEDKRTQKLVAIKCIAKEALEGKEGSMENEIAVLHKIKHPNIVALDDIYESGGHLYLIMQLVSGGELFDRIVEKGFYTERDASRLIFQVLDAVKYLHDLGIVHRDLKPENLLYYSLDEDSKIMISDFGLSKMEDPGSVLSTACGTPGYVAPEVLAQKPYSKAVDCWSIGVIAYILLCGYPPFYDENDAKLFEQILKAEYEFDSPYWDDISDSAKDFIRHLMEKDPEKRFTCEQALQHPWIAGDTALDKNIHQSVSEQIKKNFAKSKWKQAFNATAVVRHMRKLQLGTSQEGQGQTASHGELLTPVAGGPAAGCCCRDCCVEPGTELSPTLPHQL
Epidermal growth factor receptor, sequence (P00533 25-1210 T790M/L858R limits assumed): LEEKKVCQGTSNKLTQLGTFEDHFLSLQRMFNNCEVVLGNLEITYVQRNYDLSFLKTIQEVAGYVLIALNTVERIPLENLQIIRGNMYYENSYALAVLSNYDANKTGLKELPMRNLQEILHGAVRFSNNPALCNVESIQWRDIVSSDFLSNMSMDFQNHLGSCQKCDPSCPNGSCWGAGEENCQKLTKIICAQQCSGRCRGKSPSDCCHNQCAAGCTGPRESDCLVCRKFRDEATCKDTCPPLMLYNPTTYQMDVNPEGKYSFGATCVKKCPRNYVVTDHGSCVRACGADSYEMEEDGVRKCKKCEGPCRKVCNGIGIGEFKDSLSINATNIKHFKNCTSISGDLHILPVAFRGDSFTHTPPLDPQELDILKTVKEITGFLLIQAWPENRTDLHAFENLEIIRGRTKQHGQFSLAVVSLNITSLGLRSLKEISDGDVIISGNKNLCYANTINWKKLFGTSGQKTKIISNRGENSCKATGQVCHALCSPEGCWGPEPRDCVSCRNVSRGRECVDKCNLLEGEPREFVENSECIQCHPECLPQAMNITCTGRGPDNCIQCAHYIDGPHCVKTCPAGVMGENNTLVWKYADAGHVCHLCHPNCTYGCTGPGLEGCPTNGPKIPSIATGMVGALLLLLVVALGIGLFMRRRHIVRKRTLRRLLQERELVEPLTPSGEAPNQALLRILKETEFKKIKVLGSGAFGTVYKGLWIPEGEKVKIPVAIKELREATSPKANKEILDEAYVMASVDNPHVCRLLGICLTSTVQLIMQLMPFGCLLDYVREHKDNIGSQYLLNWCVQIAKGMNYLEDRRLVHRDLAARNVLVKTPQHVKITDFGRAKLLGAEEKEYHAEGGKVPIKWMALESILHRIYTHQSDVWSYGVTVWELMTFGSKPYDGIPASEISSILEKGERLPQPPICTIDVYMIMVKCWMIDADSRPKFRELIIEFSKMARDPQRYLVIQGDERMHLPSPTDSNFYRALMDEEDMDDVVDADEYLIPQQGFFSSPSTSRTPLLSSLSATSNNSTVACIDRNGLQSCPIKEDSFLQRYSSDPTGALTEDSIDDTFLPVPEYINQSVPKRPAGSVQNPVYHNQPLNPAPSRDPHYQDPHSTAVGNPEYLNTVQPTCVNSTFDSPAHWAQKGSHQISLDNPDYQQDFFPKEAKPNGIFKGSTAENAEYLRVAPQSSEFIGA

## C=CC(=O)Nc1cccc(-n2c(=O)c(=O)n(C(C)C)c3cnc(Nc4ccc(N5CCN(C)CC5)cc4OC)nc32)c1
[1]
  Tmax: 120 min
[2]
  Activity: < 1%
[3]
  Activity: < 1%
[4]
  half-life at 1 µM: 51 min
[5]
  IC50: 0.0003 µM
[6]
  AUC(0-t): 673 ng·h/mL
A-431 [7]
  inhibition in vivo at 50 mg/kg: 50%
NCI-H1975 [8]
  inhibition: Active
NCI-H1975 [9]
  inhibition in vivo at 50 mg/kg: 52%
[10]
  Cmax: 136 ng/mL
[11]
  Vd: 8.01 L/kg
[12]
  pKa: 7.7
[13]
  half-life: 48 min
[14]
  Tmax: 54 min
A-431 [15]
  IC50: 7.77 µM
[16]
  Activity: < 1%
[17]
  AUC(0-inf): 680 ng·h/mL
Mus musculus
  inhibition: Active
[18]
  AUC(0-inf): 143 ng·h/mL
